Experimental findings from ChEMBL document CHEMBL5120801, “Targeting Bromodomain-Selective Inhibitors of BET Proteins in Drug Discovery and Development” (J Med Chem, 2022) are described below.

Molecules are shown by their SMILES.

Assay [1] deals with MV4-11. The experiment in a line: Antiproliferative activity against human MV4-11 cells by Cell Titer Glo assay. It is filed as functional, cell-based. On the technique in general: Cellular ATP, detected with luciferase, serves as a proxy for viable cell number.
Assay [2] concerns MV4-11. The experiment in a line: Antiproliferative activity against human MV4-11 cells by CCK-8 assay. It is filed as functional, cell-based.
Assay [3] deals with T1, Bromodomain-containing protein 4 (Homo sapiens, UniProt O60885). Kind of assay: Binding affinity to BRD4-BD1 (unknown origin).
Assay [4] concerns the target T1, Bromodomain-containing protein 4. Kind of assay: Binding affinity to BRD4-BD2 (unknown origin).
The target of assay [5] is T2, Interleukin-1 beta (Mus musculus, UniProt P10749).
T2 sequence (P10749 whole entry): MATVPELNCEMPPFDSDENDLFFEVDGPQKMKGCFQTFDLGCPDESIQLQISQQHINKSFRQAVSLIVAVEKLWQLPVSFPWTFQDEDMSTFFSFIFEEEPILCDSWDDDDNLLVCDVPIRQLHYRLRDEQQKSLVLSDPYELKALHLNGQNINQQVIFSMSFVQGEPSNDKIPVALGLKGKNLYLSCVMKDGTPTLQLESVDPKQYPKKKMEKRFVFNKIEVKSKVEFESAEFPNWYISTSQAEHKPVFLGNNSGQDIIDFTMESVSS
The experiment in a line: Inhibition of IL-1beta in mouse BMDM cells. It is filed as cell-based.

Consider `CC(=O)N1c2ccc(-c3cc[nH]n3)cc2[C@H](Nc2ccc(C#N)cc2)C[C@@H]1C`, for which the IC50 in assay [1] was determined as 8 nM.
Consider `O=c1cc(-c2ccc(O)c(O)c2)oc2c(O)c(O)ccc12`, for which half-maximal inhibition in assay [2] (IC50) required 30.2 µM.
As to `CCNC(=O)C1=CC2C(c3cc(S(=O)(=O)CC)ccc3Oc3c(C)cc(F)cc3C)=CN(C)C(=O)C2N1` (stereo not given), the Ki in assay [3] came out at 79 nM; in assay [4], 1.3 nM.
Turning to `COc1cc(OC)c2c(=O)[nH]c(-c3cc(C)c(OCCN4CCCC4)c(C)c3)nc2c1`, inhibition in assay [5] was half-maximal at 2100 nM (IC50).

By IC50 is commonly meant the point on the concentration scale where inhibition reaches its midpoint. Usually Ki stands for the equilibrium dissociation constant of an inhibitor or competing ligand from its target. Low values mean higher affinity, high ones lower affinity.
